Data from Sander's compilation of Henry's law constants (doi:10.1002/etc.5620090606).

Assay: Henry solubility constant Hcp at 298.15 K (mol/(m3 Pa))
Details: reference: Fendinger and Glotfelty (1990)

Compound | Henry solubility constant Hcp
Cc1cccc2ccccc12 [1-methylnaphthalene] | 0.016
Clc1ccccc1-c1ccccc1Cl [2,2'-dichlorobiphenyl] | 0.04
c1ccc2c(c1)Cc1ccccc1-2 [2,3-benzindene] | 0.16
Cc1ccc2ccccc2c1 [2-methylnaphthalene] | 0.031
Clc1ccc(-c2ccc(Cl)cc2)cc1 [4,4'-dichlorobiphenyl] | 0.1
c1cc2c3c(cccc3c1)CC2 [acenaphthene] | 0.16
C1=Cc2cccc3cccc1c23 [acenaphthylene] | 0.088
c1ccc2cc3ccccc3cc2c1 [anthracene] | 0.51
c1ccc(-c2ccccc2)cc1 [biphenyl] | 0.051
CCOP(=S)(OCC)Oc1nc(Cl)c(Cl)cc1Cl [chlorpyrifos] | 2.4
CCOC(=O)CC(SP(=S)(OC)OC)C(=O)OCC (stereo unspecified) [malathion] | 2000
COP(=S)(OC)Oc1ccc([N+](=O)[O-])cc1 [methylparathion] | 160
c1ccc2ccccc2c1 [naphthalene] | 0.013
CCOP(=S)(OCC)Oc1ccc([N+](=O)[O-])cc1 [parathion] | 120
CCC(CC)Nc1c([N+](=O)[O-])cc(C)c(C)c1[N+](=O)[O-] [penoxaline] | 12
c1ccc2c(c1)ccc1ccccc12 [phenanthrene] | 0.42
